Measured values as given in patent publication US8741915B2, “Dihydropyrimidin-2(1H)-one compounds as S-nitrosoglutathione reductase inhibitors” (N30 Pharmaceuticals, Inc., priority 2009, dated 2014).

Target: GSNOR (Homo sapiens (Human), UniProt P11766)
Assay: GSNOR assay (inhibition of GSNOR activity in vitro, change in 340 nm absorbance with GSNO/NADH)
Conditions: GSNOR IC50, Table 1, racemates and separated enantiomers

Sequence of GSNOR (P11766 whole entry): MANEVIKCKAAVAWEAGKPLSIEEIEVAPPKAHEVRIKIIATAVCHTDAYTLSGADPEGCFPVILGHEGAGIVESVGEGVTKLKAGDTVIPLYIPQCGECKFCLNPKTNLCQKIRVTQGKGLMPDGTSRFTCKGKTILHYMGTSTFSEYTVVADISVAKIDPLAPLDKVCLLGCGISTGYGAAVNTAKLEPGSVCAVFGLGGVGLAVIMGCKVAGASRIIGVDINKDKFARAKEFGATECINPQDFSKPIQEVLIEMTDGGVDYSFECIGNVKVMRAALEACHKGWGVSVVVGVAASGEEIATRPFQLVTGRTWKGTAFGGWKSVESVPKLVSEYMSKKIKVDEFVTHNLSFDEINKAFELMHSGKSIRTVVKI

Row | Compound | IC50
1 | CCOc1cc([C@@H]2NC(=O)NC(c3cnn(C)c3)=C2c2ccsc2)cc(C(=O)O)c1O [Example 146, (S)-3-ethoxy-2-hydroxy-5-(6-(1-methyl-1H-pyrazol-4-yl)-2-oxo-5-(thiophen-3-yl)-1,2,3,4-tetrahydropyrimidin-4-yl)benzoic acid] | 13 nM
2 | Cn1cc(C2=C(c3ccsc3)[C@H](c3ccc(C(=O)O)c(O)c3)NC(=O)N2)cn1 [Example 169, (S)-2-hydroxy-4-(6-(1-methyl-1H-pyrazol-4-yl)-2-oxo-5-(thiophen-3-yl)-1,2,3,4-tetrahydropyrimidin-4-yl)benzoic acid] | 23 nM

Same assay, conditions: IC50, upper bound (about <)

Row | Compound | IC50
3 | CCOc1cc(C2NC(=O)NC(C3CCCC3)=C2c2ccccc2)cc([N+](=O)[O-])c1O (centres unmarked) [Example 172, 6-cyclopentyl-4-(3-ethoxy-4-hydroxy-5-nitrophenyl)-5-phenyl-3,4-dihydropyrimidin-2(1H)-one] | < 100 nM
4 | CCOc1cc([C@@H]2NC(=O)NC(c3cnn(C)c3)=C2c2ccsc2)cc(C(=O)O)c1O [Example 146, (S)-3-ethoxy-2-hydroxy-5-(6-(1-methyl-1H-pyrazol-4-yl)-2-oxo-5-(thiophen-3-yl)-1,2,3,4-tetrahydropyrimidin-4-yl)benzoic acid] | < 100 nM
5 | COc1cc(C2NC(=O)NC(c3ccccc3)=C2c2ccccc2)cc(O)c1C(=O)O (centres unmarked) [Example 165, 2-hydroxy-6-methoxy-4-(2-oxo-5,6-diphenyl-1,2,3,4-tetrahydropyrimidin-4-yl)benzoic acid] | < 100 nM
6 | CCOc1cc(C2NC(=O)NC(c3ccc(NC(=O)OC)cc3)=C2c2ccccc2)cc([N+](=O)[O-])c1O (centres unmarked) [Example 83, methyl 4-(6-(3-ethoxy-4-hydroxy-5-nitrophenyl)-2-oxo-5-phenyl-1,2,3,6-tetrahydropyrimidin-4-yl)phenylcarbamate] | < 100 nM
7 | O=C1NC(c2ccccc2)=C(c2ccccc2)C(c2cccc(C(=O)O)c2)N1 (centres unmarked) [Example 93, 3-(2-oxo-5,6-diphenyl-1,2,3,4-tetrahydropyrimidin-4-yl)benzoic acid] | < 100000 nM
8 | Cn1cc(C2=C(c3ccsc3)[C@H](c3ccc(C(=O)O)c(O)c3)NC(=O)N2)cn1 [Example 169, (S)-2-hydroxy-4-(6-(1-methyl-1H-pyrazol-4-yl)-2-oxo-5-(thiophen-3-yl)-1,2,3,4-tetrahydropyrimidin-4-yl)benzoic acid] | < 100 nM
9 | CCOc1cc(C2NC(=O)NC(c3ccccc3)=C2c2ccccc2F)cc([N+](=O)[O-])c1O (centres unmarked) [Example 13, 4-(3-ethoxy-4-hydroxy-5-nitrophenyl)-5-(2-fluorophenyl)-6-phenyl-3,4-dihydropyrimidin-2(1H)-one] | < 100 nM
10 | CCOc1cc(C2NC(=O)NC(c3ccccc3)=C2c2ccccc2)cc(O)c1C(=O)O (centres unmarked) [Example 161, 2-ethoxy-6-hydroxy-4-(2-oxo-5,6-diphenyl-1,2,3,4-tetrahydropyrimidin-4-yl)benzoic acid] | < 100 nM
11 | O=C1NC(c2ccccc2)=C(c2ccccc2)C(c2ccc(O)c([N+](=O)[O-])c2)N1 (centres unmarked) [Example 95, 4-(4-hydroxy-3-nitrophenyl)-5,6-diphenyl-3,4-dihydropyrimidin-2(1H)-one] | < 1000 nM
12 | CCOc1cc(C2NC(=O)NC(c3ccc(C#N)cc3)=C2c2ccccc2)cc([N+](=O)[O-])c1O (centres unmarked) [Example 63, 4-(6-(3-ethoxy-4-hydroxy-5-nitrophenyl)-2-oxo-5-phenyl-1,2,3,6-tetrahydropyrimidin-4-yl)benzonitrile] | < 100 nM
13 | CCOc1cc(C2NC(=O)NC(c3ccccc3)=C2c2cccc(OC)c2)cc([N+](=O)[O-])c1O (centres unmarked) [Example 23, 4-(3-ethoxy-4-hydroxy-5-nitrophenyl)-5-(3-methoxyphenyl)-6-phenyl-3,4-dihydropyrimidin-2(1H)-one] | < 100 nM
14 | CCOc1cc(C2NC(=O)NC(c3ccc4c(c3)OCO4)=C2c2ccccc2)cc([N+](=O)[O-])c1O (centres unmarked) [Example 61, 6-(benzo[d][1,3]dioxol-5-yl)-4-(3-ethoxy-4-hydroxy-5-nitrophenyl)-5-phenyl-3,4-dihydropyrimidin-2(1H)-one] | < 100 nM
15 | CCOc1cc(C2NC(=O)NC(c3cccc4ccccc34)=C2c2ccccc2)cc([N+](=O)[O-])c1O (centres unmarked) [Example 81, 4-(3-ethoxy-4-hydroxy-5-nitrophenyl)-6-(naphthalen-1-yl)-5-phenyl-3,4-dihydropyrimidin-2(1H)-one] | < 100 nM
16 | Cn1cc(C2=C(c3ccccc3)C(c3ccc(C(=O)O)c(O)c3)NC(=O)N2)cn1 (centres unmarked) [Example 167, 2-hydroxy-4-(6-(1-methyl-1H-pyrazol-4-yl)-2-oxo-5-phenyl-1,2,3,4-tetrahydropyrimidin-4-yl)benzoic acid] | < 100 nM
17 | CCOc1cc(C2NC(=O)NC(c3ccc(NC(C)=O)cc3)=C2c2ccccc2)cc([N+](=O)[O-])c1O (centres unmarked) [Example 73, N-(4-(6-(3-ethoxy-4-hydroxy-5-nitrophenyl)-2-oxo-5-phenyl-1,2,3,6-tetrahydropyrimidin-4-yl)phenyl)acetamide] | < 100 nM
18 | CCOc1cc(C2NC(=O)NC(c3ccccc3)=C2c2ccccc2)cc(C#N)c1O (centres unmarked) [Example 69, 3-ethoxy-2-hydroxy-5-(2-oxo-5,6-diphenyl-1,2,3,4-tetrahydropyrimidin-4-yl)benzonitrile] | < 1000 nM
19 | CCOc1cc(C2NC(=O)NC(c3ccco3)=C2c2ccccc2)cc([N+](=O)[O-])c1O (centres unmarked) [Example 111, 4-(3-ethoxy-4-hydroxy-5-nitrophenyl)-6-(furan-2-yl)-5-phenyl-3,4-dihydropyrimidin-2(1H)-one] | < 100 nM
20 | CCOc1cc(C2NC(=O)NC(c3ccccc3)=C2c2cccc(C#N)c2)cc([N+](=O)[O-])c1O (centres unmarked) [Example 29, 3-(4-(3-ethoxy-4-hydroxy-5-nitrophenyl)-2-oxo-6-phenyl-1,2,3,4-tetrahydropyrimidin-5-yl)benzonitrile] | < 100 nM
21 | O=C1NC(c2ccccc2)=C(c2ccccc2)C(c2cc(O)c(C(=O)O)c(Cl)c2)N1 (centres unmarked) [Example 163, 2-chloro-6-hydroxy-4-(2-oxo-5,6-diphenyl-1,2,3,4-tetrahydropyrimidin-4-yl)benzoic acid] | < 100 nM
22 | CCOc1cc(C2NC(=O)NC(c3cccc(C#N)c3)=C2c2ccccc2)cc([N+](=O)[O-])c1O (centres unmarked) [Example 53, 3-(6-(3-ethoxy-4-hydroxy-5-nitrophenyl)-2-oxo-5-phenyl-1,2,3,6-tetrahydropyrimidin-4-yl)benzonitrile] | < 100 nM
23 | CCOc1cc(C2NC(=O)NC(c3ccc(C(F)(F)F)cc3)=C2c2ccccc2)cc([N+](=O)[O-])c1O (centres unmarked) [Example 113, 4-(3-ethoxy-4-hydroxy-5-nitrophenyl)-5-phenyl-6-(4-(trifluoromethyl)phenyl)-3,4-dihydropyrimidin-2(1H)-one] | < 100 nM
24 | CCOc1cc(C2NC(=O)NC(c3ccccc3)=C2C2CCCCC2)cc([N+](=O)[O-])c1O (centres unmarked) [Example 177, 5-cyclohexyl-4-(3-ethoxy-4-hydroxy-5-nitrophenyl)-6-phenyl-3,4-dihydropyrimidin-2(1H)-one] | < 100 nM
25 | CCOc1cc(C2NC(=O)NC(C3CCCCC3)=C2c2ccsc2)cc([N+](=O)[O-])c1O (centres unmarked) [Example 174, 6-cyclohexyl-4-(3-ethoxy-4-hydroxy-5-nitrophenyl)-5-(thiophen-3-yl)-3,4-dihydropyrimidin-2(1H)-one] | < 100 nM
26 | COc1cc(C2NC(=O)NC(c3ccccc3)=C2c2ccccc2)cc([N+](=O)[O-])c1O (centres unmarked) [Example 9, 4-(4-hydroxy-3-methoxy-5-nitrophenyl)-5,6-diphenyl-3,4-dihydropyrimidin-2(1H)-one] | < 100 nM
27 | CCOc1cc(C2NC(=O)NC(c3ccccc3)=C2c2ccccc2C)cc([N+](=O)[O-])c1O (centres unmarked) [Example 26, 4-(3-ethoxy-4-hydroxy-5-nitrophenyl)-6-phenyl-5-o-tolyl-3,4-dihydropyrimidin-2(1H)-one] | < 1000 nM
28 | CN(C)CCOc1cc(C2NC(=O)NC(c3ccccc3)=C2c2ccccc2)cc([N+](=O)[O-])c1O (centres unmarked) [Example 170, 4-(3-(2-(dimethylamino)ethoxy)-4-hydroxy-5-nitrophenyl)-5,6-diphenyl-3,4-dihydropyrimidin-2(1H)-one] | < 1000 nM
29 | CCOc1cc(C2NC(=O)NC(c3ccncc3)=C2c2ccccc2)cc([N+](=O)[O-])c1O (centres unmarked) [Example 71, 4-(3-ethoxy-4-hydroxy-5-nitrophenyl)-5-phenyl-6-(pyridin-4-yl)-3,4-dihydropyrimidin-2(1H)-one] | < 100 nM
